Legend:
[1] = test system: neutrophils; test: Effect of KFP-tetramer / 16-KFP on neutrophil viability (microscopy, flow cytometry); type: cell-based, human
[2] = test system: human neutrophils; test: 16-KFP binding in whole blood; conditions: healthy donor
Source text: (§1) A biotinylated KFP-tetramer multiantigen (designated 16-KFP) was generated in the same manner as the 16-LQI. In whole blood, 16-KFP bound ˜80% of human neutorophils and less than 10% of non-neutrophil WBC (FIG. 15A).

[3] = test system: neutrophils; test: Effect of KFP-tetramer / 16-KFP on neutrophil chemotaxis; type: cell-based, human
Source text: as §1

[4] = biological target: T1, CD177 (Homo sapiens, UniProt Q8N6Q3); test: Pull-down with KFP-tetramer as bait, mass spectrometry; type: binding
T1 construct: endogenous in cells; host or cells: human neutrophils from healthy donors, COPD patients and lung cancer patients
T1 sequence (Q8N6Q3 22-408): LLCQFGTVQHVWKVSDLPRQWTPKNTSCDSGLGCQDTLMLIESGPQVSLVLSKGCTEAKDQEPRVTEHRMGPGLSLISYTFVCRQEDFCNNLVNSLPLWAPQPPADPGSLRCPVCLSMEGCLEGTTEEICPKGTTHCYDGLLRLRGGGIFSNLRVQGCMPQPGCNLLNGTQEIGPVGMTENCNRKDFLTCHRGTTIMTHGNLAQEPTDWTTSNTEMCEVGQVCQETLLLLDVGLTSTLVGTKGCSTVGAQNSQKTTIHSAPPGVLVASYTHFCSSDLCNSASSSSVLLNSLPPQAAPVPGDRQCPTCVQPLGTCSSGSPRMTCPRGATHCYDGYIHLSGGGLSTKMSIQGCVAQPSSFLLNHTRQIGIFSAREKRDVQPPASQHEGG
Source text: (§2) Similarly, the human CD177 was identified as a binding-partner of the peptides binding to human neutrophils (SEQ ID NOs: 1-8). […] Still, the extent of KFP-tetramer binding and CD177 levels fit well within the correlation plot and support the role of CD177 in mediating the binding of the KFP-tetramer to neutrophils (FIG. 22B).

[5] = test system: non-neutrophil WBC; test: 16-KFP binding in whole blood; design: species or system human; conditions: healthy donor
Source text: as §1

[6] = test system: neutrophils; test: Effect of KFP-tetramer / 16-KFP on neutrophil activation (ROS production); type: cell-based, human
Source text: as §1

[7] = test system: murine neutrophils (HDNs from 4T1-tumor bearing mice); test: Titration of binding to purified HDNs, flow cytometry; design: species or system mouse; conditions: tetramer-SA complex of control peptide
Description: Analysis was performed by flow cytometry.

[8] = biological target: T1, CD177; test: Correlation of CD177 expression and KFP-tetramer binding in donors; conditions: healthy donors, patients with COPD and lung cancer patients
Source text: FIGS. 22A-C: (22A) Bar graph of 16-KFP binding and CD177 expression of neutrophils of healthy donors (2, 6, 10), COPD patients (11, 12) and lung cancer patients (13). (22B) Line graph of correlation between CD177 expression and 16-KFP binding in different donors. (22C) Bare graph of binding of 16-KFP to neutrophils with increasing amounts of CD177 blocking antibody.
as §2

Substance | effect on neutrophil viability [1] | human neutrophils bound [2] [%] | effect on chemotactic properties [3] | binding partner identified [4] | non-neutrophil WBC bound [5] | effect on neutrophil activation (ROS production, FIG. 15B) [6] | binding to murine neutrophils [7] | correlation between CD177 expression and binding to neutrophils [8] | chemoattraction of neutrophils ([3]; FIG. 15E) | effect on neutrophil attraction to CXCL2 ([3]; FIG. 15F)
16-KFP: biotinylated KFP-tetramer multiantigen generated in the same manner as 16-LQI; tetramer-SA complex used as control on murine neutrophils [Peptide 16-KFP] | no significant effect | ~80 | no significant effect | CD177 was identified as the binding partner | less than 10% | no significant effect | did not show binding | – | – | –
(KFPDLDSRRLPHMSL (SEQ ID NO: 1) Doa-Doa-C)4-(Mpa)-4-Lys2-Lys-beta-Ala-Lys(Biotin)-beta-Ala-OH [KFP tetramer] | – | – | – | – | – | no effect | – | strong positive correlation | not chemoattractive | no effect

Source: patent US11952431B2, “Neutrophil-binding peptides” (YISSUM RESEARCH DEVELOPMENT COMPANY OF THE HEBREW …, priority 2020, dated 2024)
